Measured values taken from US20110034380A1, “COMBINATION OF A SELECTIVE PPAR-GAMMA MODULATOR AND AN INCRETIN FOR THE TREATMENT OF DIABETES AND OBESITY” (priority 2009, published 2011).

Experiment: Stability of polymorph Form II of the besylate salt
Type: physicochemical
Conditions: exemplary Form II polymorph, solid form
Description: In some embodiments, Form II of the besylate salt of compound 101 (2,4-Dichloro-N-[3,5-dichloro-4-(quinolin-3-yloxy)-phenyl]-benzenesulfonamide benzenesulfonate salt) is used. […] In some embodiments, the Form II polymorph can have a melting point between about 230 and 240° C. […] For example, particular Form II polymorphs can have major X-ray powder diffraction pattern peaks at 15, 19, 20.5, 23.5, 24.5, 25, 26.5, 29.5 and 30.5° 2θ using Cu Kα radiation. In certain embodiments, the Form II polymorph can have major X-ray powder diffraction pattern peaks at one, two, three, four, five, six, seven or eight of the X-ray powder diffraction pattern peaks at 15, 19, 20.5, 23.5, 24.5, 25, 26.5, 29.5 and 30.5° 2θ using Cu Kα radiation. In certain embodiments, the Form II polymorph of the invention can have both a melting point between about 230 and 240° C. and major X-ray powder diffraction pattern peaks at one, two, three, four, five, six, seven or eight of the X-ray powder diffraction pattern peaks at 15, 19, 20.5, 23.5, 24.5, 25, 26.5, 29.5 and 30.5° 2θ using Cu Kα radiation. In further embodiments, the Form II polymorph can have major infrared absorbance peaks at one, two, three, four, or five of the infrared absorbance peaks at 1573, 1469, 1459, 912, and 859 cm^−1.

- stability of the polymorph: surprising stability
Structure (SMILES): O=S(=O)(Nc1cc(Cl)c(Oc2cnc3ccccc3c2)c(Cl)c1)c1ccc(Cl)cc1Cl.O=S(=O)(O)c1ccccc1 [2,4-Dichloro-N-[3,5-dichloro-4-(quinolin-3-yloxy)-phenyl]-benzenesulfonamide benzenesulfonate salt]
